The nature of one data set: Pharmacokinetics in rats. It counts as in vivo, Sprague-Dawley rats. Conditions: rat. The procedure:
The pharmacokinetic profile of 4AZA2891 was investigated in male Sprague-Dawley rats after intravenous and oral administration of a dose of 2 mg/kg and 20 mg/kg, respectively. The rats were purchased from Charles River Laboratories (Belgium) and 3 rats were included in each dosing route. 4AZA2891 was formulated either as a solution at 1 mg/ml in glucose 5% with 2 equivalents of H3PO4 for the IV dosing or as a solution at 4 mg/ml in water with 2 equivalents of H3PO4 for the oral dosing. Both formulations were heated for 1 hour at 80°C in order to obtain a clear solution. Serial venous blood samples, taken by eye puncture under isoflurane inhalation anesthesia, were collected in heparinized tubes. The plasma fraction was immediately separated by centrifugation 2 min at 13,000 g and stored at -80°C until analysis. Plasma concentrations were measured using liquid chromatography/mass spectrometry/mass spectrometry (LC/MS/MS).
(§1) Every plasma and tissue sample was spiked with internal standard followed by the addition of 4 volumes of methanol. The samples were kept for 30 min on ice prior to centrifugation 10 min at 12,000 RPM in order to remove precipitated proteins. The supernatant was analyzed for the presence of 4AZA2891 using LC/MS/MS (Finnigan LCQ advantage Max (ion trap) mass spectrometer with Surveyor HPLC System (Thermo Finnigan)).
(§2) As standard for the bioanalysis, 4AZA2891 was diluted stepwise. Each dilution was added to blank control plasma or to blank control tissue homogenate additionally spiked with internal standard, giving rise to standard curves from 5 to 5,000 ng/ml. The lower limit of quantification was 5 to 10 ng/ml depending on the tissues.
(§3) Non-compartmental pharmacokinetic analysis was performed on the plasma concentration-time data. PK Solutions 2.0 software (Summit Research Services) was used to calculate the PK parameters.

Data set [1] is described as follows: Pharmacokinetics and tissue distribution in mice. Conditions: CD1 mice, IV bolus 20 mg/kg. Format: in vivo. How it is done: Female CD1 mice were purchased from Harlan (Harlan Netherlands BV) and 7–8 weeks old mice were injected intravenously (IV) with 20 mg/kg 4AZA2891 formulated at 2 mg/ml as described above. […] The plasma, obtained after centrifugation of the heparinized blood for 2 min at 13,000 g, and the harvested tissues, after homogenization with Ultra-Turrax, were stored at-80°C until analysis by LC-MS/MS.
as §1, §2, §3

The test system of the next data set is HT-29 xenograft. In words: HT-29 xenograft tumor model. Format: in vivo. Conditions: for ratio of relative tumor volume of treated mice over control mice (T/C): end of the treatment period. How it is done:
Seven-week-old NMRI nude male mice were obtained from Janvier Labs (France) and injected with 10^7 HT-29 cells intradermally on the flank. When tumors reached approximately 100 mm^3, mice were distributed into three groups of four to six mice to give the same average tumor size per group and randomly assigned a treatment condition. Mice were injected IV with 4AZA2891 at 15 mg/kg following a Q1D5x2W administration schedule or at 30 mg/kg following a Q2D3x2W administration schedule or with the vehicle (Q1D5x2W). 4AZA2891 was formulated before each injection at 3 mg/ml in 5% glucose with 2 equivalent H3PO4 and warmed at 80°C for 1 h to obtain a clear solution. Tumor volume was measured as (width^2 × length)/2 in mm^3 and weight gain/loss and survival were monitored. T/C ratio was calculated as the ratio of the relative tumor volume average. The health status and behaviour of the animals were assessed daily for well-being. At the end of the experiment (day 35 after treatment intiation)) or in the events of signs of distress, cachexia or excessive tumor growth, the mice were humanely sacrificed by CO2 inhalation followed by cervical dislocation.

A further data set relates to NCI/ADR-RES. In words: NCI60 5-dose screen, NCI/ADR-RES. To be noted: Homo sapiens, ovarian cancer, Fig 1D, read-out: Log10 GI50 (NCI/ADR-RES) (converted). It counts as cell-based. How it is done:
The screening methodology used in the NCI60 Cell 5-Doses screen is described in detail at https://dtp.cancer.gov/discovery_development/nci-60/methodology.htm. Briefly, cells are seeded in 96 well plates at an appropriate density and incubated for 1 day. After 1 day, some of the plates are processed to determine a time zero density. To the remaining plates, compounds are added over a 5-log M concentration range (1 log dilutions from 10^-4M to 10^-8M). Plates are incubated for two additional days, then fixed and stained with sulforhodamine B. Growth inhibition is calculated relative to cells without drug treatment and the time zero control. The GI50 is the concentration of a compound that causes 50% growth inhibition, relative to the no drug control.

From article PMC11542830, “3-nitropyridine analogues as novel microtubule-targeting agents” (PLOS ONE, 2024) come the findings set out here.

Like-named read-outs stand apart in the source and are kept apart here.

By clearance is commonly meant the volume of plasma or blood freed of the substance per unit of time. Consider `Cc1cc(C)cc(Nc2ccc([N+](=O)[O-])c(NCCN3CCOCC3)n2)c1` [Compound 4AZA2891, 6-(3,5-dimethylanilino)-2-(2-morpholinoethylamino)-3-nitropyridine], for which the AUC(0-t) in “Pharmacokinetics in rats” (male, Sprague-Dawley, plasma, IV 2 mg/kg, read-out: AUClast in plasma) was 253 ng·h/mL; in data set [1] (female, mouse, plasma, read-out: AUClast in plasma) it was 1290 ng·h/mL. Moreover, the half-life was 48 min in the data set “Pharmacokinetics in rats” (male, Sprague-Dawley, plasma, IV 2 mg/kg, read-out: elimination half-life (converted)); 18 to 48 min in data set [1] (female, mouse, different tissues (homogenates), tissues, read-out: elimination half-lives in the different tissues); 42 min in data set [1] (female, mouse, plasma, read-out: elimination half-life (converted)). The clearance in “Pharmacokinetics in rats” (male, Sprague-Dawley, plasma, IV 2 mg/kg, read-out: systemic clearance (converted)) was 132 mL/min/kg; in data set [1] (female, mouse, plasma, read-out: systemic clearance (converted)), 257 mL/min/kg. Besides, the Vd is 7.4 L/kg in “Pharmacokinetics in rats” (male, Sprague-Dawley, plasma, IV 2 mg/kg, read-out: volume of distribution at steady state) and 5.7 L/kg in data set [1] (female, mouse, plasma, read-out: volume of distribution at steady state). In addition, in “Pharmacokinetics in rats” (IV 2 mg/kg, lower limit of quantification 10 ng/ml), the “time detected in the plasma” value is “up to 3 hours”. Also, the oral bioavailability entry in the data set “Pharmacokinetics in rats” (oral 20 mg/kg) is given as “not orally bioavailable”. For the same compound, in “Pharmacokinetics in rats” (oral 20 mg/kg, all time points), the “plasma levels after oral dose” value is “below the limit of quantification”. The tissue distribution entry in data set [1] is listed as “distributes readily to all tissues analyzed including the brain”. Besides, the Kp in data set [1] (female, mouse, brain, read-out: ratio of brain AUC over plasma AUC) came to 2.7; in data set [1] (female, mouse, kidney, read-out: ratio of kidney AUC over plasma AUC), 2.6. For the same compound, the “ratio of relative tumor volume of treated mice over control mice (T/C)” value in the data set on HT-29 xenograft (15 mg/kg IV Q1D5x2W) came out at 42%; in the data set on HT-29 xenograft (30 mg/kg IV Q2D3x2W), 34%. Besides, the tumor growth inhibition result in the data set with HT-29 xenograft (both dosing regimen (15 mg/kg Q1D5x2W, 30 mg/kg Q2D3x2W), IV) was “significant tumor growth inhibition”. Further, the “tolerability (body weight evolution)” value with HT-29 xenograft (both dosing regimens, IV, tumor bearing mice) was “well tolerated”. The GI50 in the data set with NCI/ADR-RES was below 10 nM.
